Format in all cases: biochemical
Common to all, as to conditions: 10 nM JAK enzyme, 800 nM Abl peptide, room temperature 75 min

For one assay, the target named is JAK2 (Homo sapiens, UniProt O60674). Briefly: JAK assay (KINASE-GLO luminescent kinase assay), JAK2. As for the experimental part: (§1) All compounds were initially prepared as 10 mM stocks in anhydrous dimethylsulfoxide (DMSO). A 20 μL aliquot of the 10 mM solutions was transferred to individual wells in column 1 of a 96-well polypropylene microtiter plate (Corning #3363) and diluted with DMSO to give a final compound concentration of 4 mM. Test compounds were then serially diluted 1:5 in DMSO for an 11-point concentration response and further diluted in the assay buffer bringing all compound concentrations to a final range of 100 μM to 10 pM in 2.5% DMSO. The assay was performed in white 96-well, flat-bottom, half-area, non-binding assay plate (Corning #3642) in assay buffer consisting of 20 mM HEPES (pH 7.5), 10 mM MgCl2*6H2O, 100 μM sodium orthovanadate, 0.05% CHAPS and 0.1% bovine serum albumin. A 10 μL aliquot of compound from each well of the intermediate dilution plate and 20 μL of a 2×JAK substrate/enzyme solution containing acceptor substrate (800 nM Abl peptide), JAK enzyme (10 nM JAK1, JAK2, JAK3, or TYK2), and 1,4-Dithiothreitol (DTT, 2 μM) were added to all wells. The reaction was initiated by the addition of 10 μL of 4× stock solution ATP (2 μM). Reactions were thoroughly mixed manually, covered and allowed to incubate at room temperature for 75 min. Protein kinase activity was quantitated using Promega's KINASE-GLO™ luminescent Kinase Assay Kit according to the manufacturer's directions. ATP concentrations remaining in Test wells following the termination of the enzymatic reaction were compared against control wells containing equivalent amounts of DMSO containing no inhibitor (CTRL). […] Percent of Control (POC) values were determined for each concentration of compound tested according to the equation:
(§2) [formula] • IC50 values were calculated using the following 4-parameter logistic curve-fitting algorithm:
(§3) [formula] • IC50 values were converted to Ki values using the Cheng-Prusoff Equation: […]

Another assay addresses T1, JAK3 (Homo sapiens, UniProt P52333).
T1 sequence (P52333 1-1124): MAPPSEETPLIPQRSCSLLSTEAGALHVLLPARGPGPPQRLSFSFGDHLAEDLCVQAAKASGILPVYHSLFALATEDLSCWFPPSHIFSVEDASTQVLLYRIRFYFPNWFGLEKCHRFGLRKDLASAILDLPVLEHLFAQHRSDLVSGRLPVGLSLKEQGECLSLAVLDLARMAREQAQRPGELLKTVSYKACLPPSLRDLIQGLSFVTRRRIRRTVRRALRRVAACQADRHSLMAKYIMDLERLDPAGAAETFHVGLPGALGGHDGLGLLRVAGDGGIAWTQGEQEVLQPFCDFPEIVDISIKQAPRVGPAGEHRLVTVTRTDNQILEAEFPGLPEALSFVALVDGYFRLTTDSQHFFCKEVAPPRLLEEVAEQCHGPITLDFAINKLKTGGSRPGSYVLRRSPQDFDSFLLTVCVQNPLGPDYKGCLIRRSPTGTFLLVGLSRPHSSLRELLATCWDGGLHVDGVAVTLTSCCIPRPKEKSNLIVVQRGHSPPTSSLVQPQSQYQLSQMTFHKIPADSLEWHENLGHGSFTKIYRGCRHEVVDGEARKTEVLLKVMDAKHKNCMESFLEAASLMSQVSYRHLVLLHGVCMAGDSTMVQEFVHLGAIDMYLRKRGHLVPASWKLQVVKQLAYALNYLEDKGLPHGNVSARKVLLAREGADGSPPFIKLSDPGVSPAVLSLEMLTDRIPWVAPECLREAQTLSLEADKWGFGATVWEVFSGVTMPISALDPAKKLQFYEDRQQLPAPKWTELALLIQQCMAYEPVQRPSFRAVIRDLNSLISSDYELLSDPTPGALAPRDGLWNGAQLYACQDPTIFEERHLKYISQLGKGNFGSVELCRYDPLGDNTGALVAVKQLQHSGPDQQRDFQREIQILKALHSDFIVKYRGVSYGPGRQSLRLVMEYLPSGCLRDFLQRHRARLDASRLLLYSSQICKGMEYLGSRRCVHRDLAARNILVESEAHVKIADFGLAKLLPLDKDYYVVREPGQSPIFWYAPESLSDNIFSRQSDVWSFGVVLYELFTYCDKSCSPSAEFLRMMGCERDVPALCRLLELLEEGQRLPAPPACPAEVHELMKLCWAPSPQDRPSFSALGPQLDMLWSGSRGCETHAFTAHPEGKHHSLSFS
Briefly: JAK assay (KINASE-GLO luminescent kinase assay), JAK3. As for the experimental part: as §1, §2, §3

A further assay addresses JAK1 (Homo sapiens, UniProt P23458). Briefly: JAK assay (KINASE-GLO luminescent kinase assay), JAK1. The protocol: as §1, §2, §3
The target in the next assay is TYK2 (Homo sapiens, UniProt P29597). The assay is described as follows: JAK assay (KINASE-GLO luminescent kinase assay), TYK2. As for the experimental part: as §1, with “A 20 μL aliquot of the 10 mM solutions was transferred to individual wells in column 1 of a 96-well polypropylene microtiter plate (Corning #3363) and diluted with DMSO to give a final compound concentration of 4 mM.” left out
as §2, §3

SMILES strings stand for the structures.

Chain of TYK2 (P29597 whole entry): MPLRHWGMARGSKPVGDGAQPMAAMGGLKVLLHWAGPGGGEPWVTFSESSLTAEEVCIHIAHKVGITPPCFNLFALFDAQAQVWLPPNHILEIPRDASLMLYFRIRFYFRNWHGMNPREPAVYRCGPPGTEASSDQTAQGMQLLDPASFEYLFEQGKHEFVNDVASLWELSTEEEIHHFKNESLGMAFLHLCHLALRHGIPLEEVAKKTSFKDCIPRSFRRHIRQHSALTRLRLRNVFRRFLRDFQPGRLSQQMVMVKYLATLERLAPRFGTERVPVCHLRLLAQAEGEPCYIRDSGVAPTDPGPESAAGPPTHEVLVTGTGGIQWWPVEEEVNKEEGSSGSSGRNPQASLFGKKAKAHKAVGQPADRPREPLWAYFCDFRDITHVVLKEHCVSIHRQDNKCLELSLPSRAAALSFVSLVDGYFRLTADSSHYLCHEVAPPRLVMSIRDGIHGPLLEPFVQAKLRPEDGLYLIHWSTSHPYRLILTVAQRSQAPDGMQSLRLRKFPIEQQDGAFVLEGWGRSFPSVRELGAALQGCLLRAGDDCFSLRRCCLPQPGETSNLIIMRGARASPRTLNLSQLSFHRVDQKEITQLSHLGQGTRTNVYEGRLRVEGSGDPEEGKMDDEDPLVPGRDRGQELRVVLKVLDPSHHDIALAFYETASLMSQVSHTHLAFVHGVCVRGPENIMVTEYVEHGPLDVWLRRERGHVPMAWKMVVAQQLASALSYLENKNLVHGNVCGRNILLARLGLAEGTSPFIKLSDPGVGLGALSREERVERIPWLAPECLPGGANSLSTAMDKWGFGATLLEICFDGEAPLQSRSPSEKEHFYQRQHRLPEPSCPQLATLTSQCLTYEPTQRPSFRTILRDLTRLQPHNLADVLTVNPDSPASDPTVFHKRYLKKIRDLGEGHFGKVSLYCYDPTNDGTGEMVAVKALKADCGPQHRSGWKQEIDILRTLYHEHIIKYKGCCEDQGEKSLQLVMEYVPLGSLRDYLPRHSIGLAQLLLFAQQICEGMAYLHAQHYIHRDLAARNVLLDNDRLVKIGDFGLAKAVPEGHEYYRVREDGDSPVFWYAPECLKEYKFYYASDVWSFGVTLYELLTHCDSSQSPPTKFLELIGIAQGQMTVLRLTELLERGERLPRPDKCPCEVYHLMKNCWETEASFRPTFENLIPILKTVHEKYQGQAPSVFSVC
Chain of JAK1 (P23458 whole entry): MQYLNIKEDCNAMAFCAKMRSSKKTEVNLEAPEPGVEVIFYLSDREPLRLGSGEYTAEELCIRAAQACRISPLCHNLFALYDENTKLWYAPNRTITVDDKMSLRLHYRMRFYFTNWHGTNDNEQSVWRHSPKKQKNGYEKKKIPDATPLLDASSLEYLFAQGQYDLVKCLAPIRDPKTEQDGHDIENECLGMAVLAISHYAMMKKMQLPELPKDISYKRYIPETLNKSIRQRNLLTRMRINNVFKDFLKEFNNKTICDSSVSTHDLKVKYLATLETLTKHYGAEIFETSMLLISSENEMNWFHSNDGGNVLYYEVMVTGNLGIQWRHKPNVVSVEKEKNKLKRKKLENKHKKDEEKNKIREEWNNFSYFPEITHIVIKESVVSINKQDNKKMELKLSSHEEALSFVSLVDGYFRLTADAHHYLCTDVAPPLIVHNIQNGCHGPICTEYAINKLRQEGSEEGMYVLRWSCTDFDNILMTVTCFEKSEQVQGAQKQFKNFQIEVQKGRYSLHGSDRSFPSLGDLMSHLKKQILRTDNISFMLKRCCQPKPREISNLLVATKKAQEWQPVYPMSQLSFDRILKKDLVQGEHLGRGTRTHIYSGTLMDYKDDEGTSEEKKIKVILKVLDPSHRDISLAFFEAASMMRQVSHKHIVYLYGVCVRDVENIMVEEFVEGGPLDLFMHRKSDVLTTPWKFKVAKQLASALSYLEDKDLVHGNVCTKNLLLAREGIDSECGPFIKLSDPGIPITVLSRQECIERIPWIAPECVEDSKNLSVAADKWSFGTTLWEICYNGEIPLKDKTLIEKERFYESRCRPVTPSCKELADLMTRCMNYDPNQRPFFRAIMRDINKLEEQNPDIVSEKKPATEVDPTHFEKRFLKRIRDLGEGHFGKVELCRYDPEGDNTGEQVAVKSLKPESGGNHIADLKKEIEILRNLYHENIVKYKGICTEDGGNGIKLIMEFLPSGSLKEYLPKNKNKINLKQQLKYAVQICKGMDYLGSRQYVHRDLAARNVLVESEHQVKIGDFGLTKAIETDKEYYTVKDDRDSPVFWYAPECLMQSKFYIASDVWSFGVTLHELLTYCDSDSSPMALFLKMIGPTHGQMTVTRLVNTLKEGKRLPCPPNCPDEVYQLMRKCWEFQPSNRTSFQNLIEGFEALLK
Chain of JAK2 (O60674 whole entry): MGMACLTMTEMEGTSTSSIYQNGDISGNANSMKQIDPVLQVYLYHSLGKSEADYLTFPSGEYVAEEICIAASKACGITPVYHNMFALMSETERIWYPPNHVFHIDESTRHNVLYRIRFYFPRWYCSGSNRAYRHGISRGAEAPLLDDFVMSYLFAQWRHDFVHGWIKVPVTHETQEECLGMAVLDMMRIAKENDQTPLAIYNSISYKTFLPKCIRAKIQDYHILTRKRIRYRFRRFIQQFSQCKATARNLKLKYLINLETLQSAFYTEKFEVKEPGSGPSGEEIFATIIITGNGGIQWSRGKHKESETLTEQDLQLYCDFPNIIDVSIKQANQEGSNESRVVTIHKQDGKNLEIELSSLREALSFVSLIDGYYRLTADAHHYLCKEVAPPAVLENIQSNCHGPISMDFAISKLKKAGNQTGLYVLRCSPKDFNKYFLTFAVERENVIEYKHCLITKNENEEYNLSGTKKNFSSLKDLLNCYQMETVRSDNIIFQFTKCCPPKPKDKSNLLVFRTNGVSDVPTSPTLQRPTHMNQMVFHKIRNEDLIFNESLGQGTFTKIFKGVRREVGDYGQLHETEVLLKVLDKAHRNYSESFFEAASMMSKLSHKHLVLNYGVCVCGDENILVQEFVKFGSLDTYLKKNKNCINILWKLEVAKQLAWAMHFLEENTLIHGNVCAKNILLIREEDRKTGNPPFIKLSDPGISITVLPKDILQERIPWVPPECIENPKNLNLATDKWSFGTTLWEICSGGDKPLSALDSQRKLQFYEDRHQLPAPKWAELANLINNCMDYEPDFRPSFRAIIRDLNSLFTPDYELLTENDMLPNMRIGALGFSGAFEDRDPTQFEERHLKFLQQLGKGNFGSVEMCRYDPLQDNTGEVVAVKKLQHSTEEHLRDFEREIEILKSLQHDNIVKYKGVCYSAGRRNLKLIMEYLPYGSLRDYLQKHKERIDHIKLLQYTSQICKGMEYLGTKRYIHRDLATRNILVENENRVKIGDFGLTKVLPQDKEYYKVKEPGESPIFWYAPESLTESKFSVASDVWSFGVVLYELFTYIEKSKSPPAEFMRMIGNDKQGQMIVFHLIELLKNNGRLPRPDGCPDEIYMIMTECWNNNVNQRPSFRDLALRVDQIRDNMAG

In the case of `Cc1cnc(Nc2ccccn2)nc1-c1cnn(CC2(Cl)CC2)c1` [CC1═C(N═C(NC2═CC═CC═N2)N═C1)C3═C[N]], the IC50 on JAK2 was less than 1000 nM; at JAK3, less than 100000 nM; against JAK1, less than 100000 nM; against TYK2, less than 100000 nM.
With `Cc1cnc(Nc2ccc(C3CN(C(=O)OC(C)(C)C)C3)cc2)nc1-c1cnn(CCC#N)c1` [CC1═C(N═C(NC2═CC═C(C═C2)C3CN], the IC50 at JAK2 is less than 10 nM; at JAK3 it was less than 100 nM; against JAK1, less than 100 nM; at TYK2, less than 10 nM.
For the molecule `Cc1cnc(Nc2cccc(CN3CCN(C)CC3)c2)nc1-c1cnn(CC2(CF)CC2)c1` [CN1CCN(CC1)CC2═CC═CC(═C2)NC3═NC(═C], the IC50 on JAK2 was less than 10 nM; on JAK3, less than 100 nM; against JAK1 it was less than 1000 nM; at TYK2 it was less than 1000 nM.
Turning to `N#CCCn1cc(-c2nc(Nc3ccc(N4CCOCC4)c(F)c3)ncc2Cl)cn1` [FC1═CC(═CC═C1N2CCOCC2)NC3═NC(═C], the IC50 at JAK2, against JAK3, at JAK1 and at TYK2 was less than 10 nM in each case.
As to `Cc1cnc(Nc2cc(COC(=O)CCN(C)C)ns2)nc1-c1cnn(CC2(CF)CC2)c1` [CN(C)CCC(═O)OCC1═NSC(═C1)NC2═NC], the IC50 on JAK2 is less than 10 nM; against JAK3 it was less than 10 nM; against JAK1 it was less than 100 nM; on TYK2, less than 10 nM.
With `Cc1cc(Nc2nc3c(c(-c4cnn(CC5(C#N)COC5)c4)n2)CN(C(=O)OC(C)(C)C)C3)sn1` [CC1═NSC(═C1)NC2═NC(═C3CN], the IC50 on JAK2, against JAK3, against JAK1 and against TYK2 was more than 50000 nM in each case.
With `Cc1cnc(Nc2ccnc(CN(C)C)c2)nc1-c1cnn(CC2(CF)CCC2)c1` [CN(C)CC1═CC(═CC═N1)NC2═NC(═C], the IC50 at JAK2 is less than 10 nM; on JAK3, less than 100 nM; against JAK1, less than 1000 nM; against TYK2, less than 100 nM.
As for `NC(=O)CCn1cc(-c2nc(NC3CCNCC3(F)F)ncc2Cl)cn1` (stereo not drawn) [NC(═O)CC[N]1C═C(C═N1)C2═C], the IC50 against JAK2 is less than 100000 nM; at JAK3, more than 50000 nM; against JAK1 it was more than 50000 nM; on TYK2 it was more than 50000 nM.
Regarding `N#CC1(Cn2cc(-c3nc(Nc4cnc5ccnn5c4)ncc3Cl)cn2)CCC1` [ClC1═C(N═C], the IC50 against JAK2 is less than 100 nM; against JAK3, less than 1000 nM; on JAK1, less than 100000 nM; against TYK2, less than 1000 nM.
Consider `COCCOc1ccc(Nc2ncc(C)c(-c3cnn(CC4(CF)CC4)c3)n2)cc1` [COCCOC1═CC═C(NC2═NC(═C], for which the IC50 against JAK2 was less than 10 nM; at JAK3, less than 100 nM; on JAK1 it was less than 100 nM; against TYK2 it was less than 100 nM.
As to `COc1cnc(Nc2ccc(N3CCN(C)CC3)cc2)nc1-c1cnn(CC2(Cl)CC2)c1` [COC1═C(N═C(NC2═CC═C], the IC50 against JAK2 was less than 10 nM; at JAK3 it was less than 10 nM; against JAK1 it was less than 100 nM; against TYK2, less than 100 nM.
For the molecule `COC(=O)c1cc(Nc2ncc(C)c(-c3cnn(CCC#N)c3)n2)ccc1N1CCOCC1` [COC(═O)C1═CC(═CC═C1)NC2═NC(═C], the IC50 is less than 10 nM at JAK2, less than 10 nM at JAK3, less than 100 nM against JAK1 and less than 100 nM against TYK2.
For the molecule `Cc1cnc(Nc2ccc(C(=O)N(C)C)cc2)nc1-c1cnn(CC2(CF)CC2)c1` [CN(C)C(═O)C1═CC═C(NC2═NC(═C], the IC50 against JAK2 was less than 10 nM; against JAK3 it was less than 100 nM; on JAK1, less than 100 nM; against TYK2, less than 100 nM.
Take `Cc1cnc(Nc2cc(C(=O)O)ns2)nc1-c1cnn(CC2(CF)CC2)c1` [CC1═C(N═C(NC2═CC(═NS2)C]: the IC50 was less than 10 nM at JAK2, less than 100 nM against JAK3, less than 100 nM against JAK1 and less than 100 nM at TYK2.
Take `Cc1cnc(Nc2ccc3c(c2)OCCN3C)nc1-c1cnn(CC2(CF)CC2)c1` [CN1CCOC2═CC(═CC═C12)NC3═NC(═C]: the IC50 is less than 10 nM against JAK2, less than 100 nM at JAK3, less than 100 nM against JAK1 and less than 100 nM at TYK2.
In the case of `Cc1cnc(Nc2cc(COC(=O)CCN3CCN(C)CC3)ns2)nc1-c1cnn(CC2(CF)CC2)c1` [CN1CCN(CC1)CCC(═O)OCC2═NSC], the IC50 on JAK2 is less than 10 nM; at JAK3, less than 10 nM; against JAK1 it was less than 100 nM; against TYK2, less than 10 nM.
For `Cc1ccc(Nc2ncc(C)c(-c3cnn(CC4(Cl)CC4)c3)n2)cc1S(C)(=O)=O` [CC1═CC═C(NC2═NC(═C(C)C═N2)C3═C[N]], the 50% inhibitory concentration (IC50) against JAK2, on JAK3, against JAK1 and against TYK2 was less than 100 nM each time.
For `CS(=O)(=O)N(c1ncc(Cl)c(-c2cnn(CCC#N)c2)n1)S(C)(=O)=O` [C[S](═O)(═O)NC1═NC(═C], the IC50 against JAK2, against JAK3, at JAK1 and against TYK2 was less than 100000 nM in each case.
Turning to `Cc1cnc(Nc2ccc(N3CCN(C)CC3)cc2)nc1-c1cnn(CC2(C#N)CC2)c1` [CN1CCN(CC1)C2═CC═C(NC3═NC(═C(C([2H])], the IC50 against JAK2 was less than 10 nM; at JAK3 it was less than 10 nM; against JAK1 it was less than 100 nM; on TYK2, less than 10 nM.
Turning to `COC(=O)c1cccc(Nc2ncc(Cl)c(-c3cnn(CCC#N)c3)n2)c1` [COC(═O)C1═CC═CC(═C1)NC2═NC], the IC50 against JAK2 was less than 10 nM; at JAK3 it was less than 10 nM; against JAK1, less than 100 nM; at TYK2, less than 100 nM.
`Cc1cnc(Nc2cccc(C(N)=O)c2)nc1-c1cnn(CC2(CF)CC2)c1` [CC1═C(N═C(NC2═CC(═CC═C2)C]: the IC50 on JAK2 is less than 10 nM; against JAK3 it was less than 100 nM; against JAK1 it was less than 100 nM; at TYK2, less than 10 nM.

These data come from patent US20250236611A1, “PYRAZOLE COMPOUNDS AND USES THEREOF” (ALCON INC., priority 2021, published 2025).
